Reference: patent US20200022964A1, “COMPOSITIONS AND METHODS FOR TREATMENT OF INFLAMMATORY AUTOIMMUNE DISEASES” (New York University, priority 2018, published 2020)

Assays:
TNF-tg mice = assay: hTNF-tg mouse model of inflammatory arthritis; conditions: for serum levels of IL-1β and IL-6: compared with the control group; for clinical scores of arthritis: oral daily from 8 weeks of age, 13 weeks, FFD 10 mg/kg, TFD 50 mg/kg; for therapeutic effects (swelling score): treatment started at average score of approximately eight points, FFD 0.4, 2, 10 mg/kg, TFD 2, 10, 50 mg/kg oral, 8 weeks; for swelling score once the treatment resumed: treatment stopped at 17-week and resumed at 19-week time point
Procedure: Six mice in each group. Swelling scores were assessed weekly in accordance with the scoring system offered by the company. The swelling scores were taken as the sum of the scores from digits, paws, wrists and ankles with the highest possible score for each mouse at 24. The score system is: 20 digits (0=normal, 0.2=one or more swollen joints), 4 paws (0=normal, 1=noticeable swollen, 2=severe swollen), 2 wrists (0=normal, 1=noticeable swollen, 2=severe swollen), and 2 ankles (0=normal, 2=noticeable swollen, 4=severe swollen). At the end of treatment and observation, mice were sacrificed for collection of sera, spleens and ankles.

[1] = system: TNF-α/NF-κB signaling pathway; assay: NF-κB beta-lactamase reporter gene assay in NF-κB-bla THP-1 cell line; assay type: cell-based; conditions: THP-1 cells, drug overnight; for TNF-α-activated NF-κB reporter gene: then TNF-α 6 hours
Procedure: In vitro and in vivo screen of FDA-approved drug library. NF-κB-bla THP-1 cell line in which NF-κB beta-lactamase reporter gene was stably integrated, RAW 264.7 macrophages in which NF-κB luciferase reporter gene was transiently transfected, and TNF-tg:NF-κB-Luc double mutant reporter mice were employed to screen the drug library. Screening FDA approved drugs in vitro. NF-κB-bla THP-1 cell line ([…], Invitrogen) was cultured in 96-well plates and FDA approved drugs (10 μM, L1300, Selleckchem) were added and cultured overnight. Next day, […] Loading Kit with CCF2-AM ([…], Invitrogen) was used to detect the β-lactamase activity via SpectraMax i3x system (5025027A Molecular Devices) with excitation wavelength at 409 nm and emission wavelengths at 520 nm or 470 nm. This process was performed in triplicate. Subsequently, the drugs from first screening that could inhibit TNF-α induced NF-κB activity underwent further screening by NF-κB luciferase assay. After transfection with NF-κB luciferase reporter gene and Renilla plasmids for 8 hours, cells were treated with drugs (10 μM) overnight, followed by TNF-α (10 ng/ml) stimulation for 6 hours, then bioluminescence was measured by Dual-Luciferase® Reporter Assay kit (E1910, Promega). The data were analyzed by Graphpad Prism software (GraphPad Software, San Diego, Calif.).

cPLA2 = molecular target: T1, cPLA2 (Mus musculus, UniProt P47713); assay: CETSA assay in RAW264.7 cells; assay type: binding; parameters: endogenous in cells; host or cells: RAW264.7; conditions: for EC50: CETSA at 49° C., 0.001 μM to 100 μM, read-out: EC50 of prevention of cPLA2 denaturation (isothermal dose response)
T1 sequence (P47713 1-748): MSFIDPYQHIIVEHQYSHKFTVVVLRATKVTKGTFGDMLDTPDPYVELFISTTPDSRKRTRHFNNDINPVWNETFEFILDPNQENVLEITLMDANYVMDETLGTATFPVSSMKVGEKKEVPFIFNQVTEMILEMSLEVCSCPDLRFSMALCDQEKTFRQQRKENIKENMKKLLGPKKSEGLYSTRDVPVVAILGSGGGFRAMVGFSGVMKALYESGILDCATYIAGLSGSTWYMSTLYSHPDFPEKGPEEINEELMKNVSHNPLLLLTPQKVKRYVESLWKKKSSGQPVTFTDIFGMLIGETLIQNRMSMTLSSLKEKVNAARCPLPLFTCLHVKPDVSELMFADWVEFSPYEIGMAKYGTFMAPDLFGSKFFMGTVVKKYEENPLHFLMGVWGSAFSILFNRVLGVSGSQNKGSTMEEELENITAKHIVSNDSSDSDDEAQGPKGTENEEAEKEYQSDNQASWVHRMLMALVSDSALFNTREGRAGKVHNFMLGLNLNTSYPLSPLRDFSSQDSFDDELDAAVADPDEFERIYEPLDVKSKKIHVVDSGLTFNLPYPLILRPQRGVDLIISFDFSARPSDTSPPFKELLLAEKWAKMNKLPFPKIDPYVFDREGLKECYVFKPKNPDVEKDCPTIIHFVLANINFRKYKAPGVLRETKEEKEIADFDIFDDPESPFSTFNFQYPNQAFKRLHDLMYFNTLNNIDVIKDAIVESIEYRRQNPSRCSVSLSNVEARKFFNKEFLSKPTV
Procedure: CETSA assay. RAW264.7 cells were treated with FFD (10 μM)/TFD (1 μM) for 1 hour in a 37° C. incubator with 5% CO2. Cells were harvested and divided equally into different tubes, after which the cells were heated to different temperatures for 3 minutes. After lysis via 3 repeated freeze-thaw cycles, samples underwent centrifugation at 20000 g and supernatants were collected for analysis. For the isothermal dose response, a series of ten-fold change concentrations (ranged from 0.001 μM to 100 μM) of FFD/TFD were used to treat cells and no variation in temperature was introduced. The remaining steps are the same as previously reported^5.

CD4+ T cells = assay: Spleen CD4+ T cell differentiation in vitro and splenic T cell composition in vivo; assay type: cell-based, mice
Procedure: Spleen CD4^+T cell differentiation. Inducing spleen naive CD4^+T cell differentiation into T cell subsets was performed. Briefly, after preparing the splenic naïve CD4^+T cells from wild-type 8-12 week old C57BL/6 mice, the following cytokines were added to induce naive CD4^+T cell differentiation into T cell subsets: IL-2 (20 ng/mL), IL-12 (15 ng/mL), and anti-IL4 (5 μg/mL) for Thl; IL-2 (20 ng/mL), IL-4 (10 ng/mL), and anti-IFNγ (5 μg/mL) for Th2; IL-6 (20 ng/mL), TGFβ (3 ng/mL), anti-IFNγ (5 μg/mL), and anti-IL4 (5 μg/mL) for Th17; IL-2 (20 ng/mL), TGFβ (15 ng/mL), anti-IFNγ (5 μg/mL), and anti-IL4 (5 μg/mL) for Treg. […] Before collecting cells for fluorescence staining, 1 μL Golgi stop from Fixation/Permeabilization Solution Kit with BD GolgiPlug™ (555028,BD Biosciences) was added to each well and incubated in the plate for 4 hours. Cells were stained according to the kit specifications. For each T cell subtype, the combination of fluorescence dyes was as follows: FITC-CD4 (M1004502, Sungene) and Percp-cy5.5-IFNγ (45-7311-82, eBioscience) for Th1; FITC-CD4 and PE-IL4 (554389, BD pharmingen) for Th2; FITC-CD4 and PE-IL-17A (12-7177-81, eBioscience) for Th17; FITC-CD4, PE-CD25 (102008, Biolegend) and Alex-Fluo647-FoxP3 (51-5773-80, eBioscience) for Treg. Then the samples were analyzed at NYU core facilities using a FACS Calibur cell analyzer with CellQuest software. […] Frozen splenic tissue specimens from TNFα Tg mice treated with or without TFD or FFD were stained and analyzed dual immunofluorescence. All sections were permeabilized with 0.1% NP40 in PBS, and then blocked in 5% donkey serum for 30 min at RT, followed by incubated with anti-IFNg (Th1), anti-IL-4 (Th2), anti-IL17 (Th17) and anti-foxp3 (Treg) diluted in 5% donkey serum at 4° C. overnight. On the second day, after washed 3 times in PBS, the sections were incubated with Cy2-conjugated donkey anti-rat IgG for 30 min at RT. After wash, the sections were furthered stained with FITC conjugated anti-CD4 for I hour at RT. To determine the macrophage polarization, sections were double stained with anti-CD68 and iNOS (M1) or CD206 (M2). DAPI were used to stain the nuclei. The fluorescence intensity of cells was quantified by Image J software.

EC50 (cPLA2) [nM]	Tm of cPLA2 (CETSA melt curve) (cPLA2; RAW264.7 cells, FFD 10 μM, TFD 1 μM, 1 hour, control DMSO 46.09) [°C]	SMILES	clinical scores of arthritis, comparison with MTX (TNF-tg mice; prevention, FFD 10 mg/kg vs MTX 2 mg/kg oral daily)	serum levels of IL-1β and IL-6 (TNF-tg mice; prevention)	clinical scores of arthritis (TNF-tg mice; prevention)	therapeutic effects (swelling score) (TNF-tg mice)	swelling score once the treatment resumed (TNF-tg mice)	AA activation of the NF-κB reporter gene ([1]; then AA 6 hours)	TNF-α-activated NF-κB reporter gene [1]	TNF-α-activated NF-κB reporter gene ([1]; listed as FFD)	differentiation of IFNγ-positive Th1 subpopulation (CD4+ T cells)	differentiation of Th2, Th17 and regulatory T cells (CD4+ T cells)
102		CC(C)(C(=O)O)c1ccc(C(O)CCCN2CCC(C(O)(c3ccccc3)c3ccccc3)CC2)cc1 (centres unmarked) [fexofenadine]	more effective than MTX	significantly reduced	significant reduction	effective therapeutic effects in a dose-dependent manner	immediate reduction	did not constrain	inhibited	inhibit	significantly suppressed	negligible effects
1.45	49.08	CC(C)(C)c1ccc(C(O)CCCN2CCC(C(O)(c3ccccc3)c3ccccc3)CC2)cc1 (centres unmarked) [terfenadine]		significantly reduced	significant reduction	effective therapeutic effects in a dose-dependent manner	immediate reduction		inhibit		significantly suppressed	negligible effects
